Legend:
plasma proteins [1] = assay: Plasma protein binding experiment (PPB), D; type: in vitro ADME, dog; settings: 2 μM, 4 hours dialysis
Description: (§1) Experimental operation: 995 μL of blank plasma of each genus was taken, 5 μL of working solution of test compound (400 μM) or working solution of warfarin (400 μM) was added, so that the final concentrations of the test compound and warfarin in the plasma sample was 2 μM. The sample was mixed thoroughly. The final concentration of the organic phase DMSO was 0.5%; 50 μL of plasma samples of the test compound and warfarin were pipetted into the sample receiving plate (three parallels), and the corresponding volume of the corresponding blank plasma or buffer was immediately added so that the final volume of each sample well was 100 μL, with a volume ratio of 1:1 for plasma: dialysis buffer, and then 500 μL of stop solution was added to these samples, and these samples would be used as a T0 sample for the recovery and stability determination. […] All samples were analyzed by LC/MS/MS after protein precipitation, and the protein binding rate and recovery rate were calculated by the formula: % Unbound=100*F/T, % Bound=100−% Unbound, % Recovery 100*(F+T) T0 (where F was the peak area ratio of the compound in the dialysate after 4 hours of dialysis; T was the peak area ratio of the compound in the plasma after 4 hours of dialysis, and T0 was the peak area ratio of the compound in the plasma sample at zero time).

plasma proteins [2] = assay: Plasma protein binding experiment (PPB), R; type: in vitro ADME, rat; settings: 2 μM, 4 hours dialysis
Description: as §1

[3] = Hepatocyte metabolic stability experiment (HMS), H; type: in vitro ADME; settings: human, H hepatocytes, read-out: HMS CLint(liver)
Description: (§2) Experimental operations: 198 μL of hepatocyte suspension (0.51×10^6 cells/mL) was added to the preheated incubation plate, and 198 μL of culture medium without hepatocytes was added to T0-MC and T120-MC incubation plates for the culture medium control group, and all incubation plates were pre-incubated for 10 minutes in a 37° C. incubator. Then 2 μL of the working solution of the test and control compounds were added and mixed well, and the incubation plate was immediately put into the plate shaker in the incubator, the rotation speed was adjusted to about 650 rpm, and the timer and the reaction were started. 2 duplicate samples for each compound were prepared at each time point. Incubation conditions: 37° C., saturated humidity, and containing 5% CO2. In the test system, the final concentration of the test compound was 1 μM, the final concentration of the control compound was 3 μM, the final concentration of hepatocytes was 0.5×10^6 cells/mL, and the final concentration of the total organic solvent was 0.96%, of which the final concentration of DMSO was 0.1%. […] All samples were mixed and analyzed by LC-MS/MS method. […]

[4] = Hepatocyte metabolic stability experiment (HMS), M; type: in vitro ADME; settings: mouse, M hepatocytes, read-out: HMS CLint(liver)
Description: as §2

[5] = Pharmacokinetic evaluation of compounds in rats; type: in vivo; settings: rat, plasma, SD rats
Description: Experimental purpose: To test the in vivo pharmacokinetic data of compounds in SD rats.
(§3) The compound was mixed with the solvent 5% DMSO/5% Solutol/90% H2O, vortexed and sonicated to prepare a 0.5 mg/mL clear solution. The rats were administered the candidate compound solution intravenously. Whole blood was collected for a certain period of time, and plasma was prepared. The drug concentration was analyzed by LC-MS/MS method, and pharmacokinetic parameters were calculated.
as §3, with “2” for “0.5”, “administered” for “administered the”, “solutions orally.” for “solution intravenously.”

[6] = test system: experimental autoimmune encephalomyelitis (EAE) model; assay: In vivo efficacy of EAE in C57BL/6 mice; settings: C57BL/6 female mice, 5 mg/kg
Description: Experimental methods: Experimental autoimmune encephalomyelitis (EAE) model was established in 10-week-old C57BL/6 female mice, and the animals were randomly divided into two groups according to their weight, of which, group G1 was a pure modeling group with 5 animals, and group G2 was a subject 002 group with 7 animals. On day 0, 100 μL of myelin oligodendrocyte glycoprotein (MOG) emulsion was injected subcutaneously into the hind flank of each animal in the G1-G2 group at two points, totaling 200 μL. After 2 hours and 48 hours, respectively, 200 μL of pertussis toxin (PTX) was injected subcutaneously into the animals of groups G1-G2. The in vivo experiment was finished on day 22, and no treatment was given to group G1 from day 0; G2 group was administered 5 mg/kg of subject 002 once a day for […]. The animals in each group were weighed and scored (including tail weakness, claudication, hind limb paralysis, hind limb paralysis and other symptoms) every 2 days. [table] [table]

[7] = IV, 1.0 mg/kg (002), 0.85 mg/kg (003B)
[8] = PO, 9.2 mg/kg (002), 8.4 mg/kg (003B)

Unbound PPB (plasma proteins [1]): 4.3% | Unbound PPB (plasma proteins [2]): 1.3% | CLint scaled at 1 μM [3]: 130 mL/min/kg | CLint scaled at 1 μM [4]: 702 mL/min/kg | AUC(0-inf) [5, 7]: 1.32 µM·h | C0 [5, 7]: 3520 nM | Vd [5, 7]: 0.7 L/kg | clearance [5, 7]: 26 mL/min/kg | half-life [5, 7]: 24 min | AUC(0-inf) [5, 8]: 2.58 µM·h | Cmax [5, 8]: 1800 nM | Tmax [5, 8]: 22.8 min | bioavailability [5, 8]: 18.1% | half-life [5, 8]: 107 min
Structure (SMILES): Nc1nccc2c1n(-c1ccc(Oc3ccccc3)cc1)c(=O)n2[C@@H]1CCCN(C(=O)/C=C/CF)C1 [Compound 002]
efficacy in EAE model / severity of the disease (in words) ([6]; QD, compared with the modeling group): effective in reducing the severity of the disease | Scores of animals on day 20 after administration ([6]; EAE model, QD × 29, moulding group 1.8): 0.4
